Tested on: KRAS patient-derived spheroids with HUVEC/MSC, viability
Assay: Anticancer human tumor 323965-272-R-J2-PDC patient-derived pancreatic carcinoma cell line growth inhibition [KRAS2]
Settings: for IC50: curve of first compound; for viability, T/C: stronger effect = lower value
In short: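 KRAS-mutant tumor cells were grown as spheroids with HUVEC endothelial cells and human MSCs as stroma. Targeted agents were tested alone and with KRAS pathway inhibitors. Doses started at or near clinical Cmax, or 10 microM, descending half-log.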

[1] = second compound 0.1 µM, first compound 0.0316 µM
[2] = second compound 0.1 µM, first compound 0.1 µM
[3] = second compound 0.1 µM, first compound 0.316 µM
[4] = second compound 0.1 µM, first compound 1 µM
[5] = second compound 0.1 µM, first compound 3.16 µM
[6] = second compound 0.1 µM, first compound 10 µM
[7] = second compound 0.316 µM, first compound 0.0316 µM
[8] = second compound 0.316 µM, first compound 0.1 µM
[9] = second compound 0.316 µM, first compound 0.316 µM
[10] = second compound 0.316 µM, first compound 1 µM
[11] = second compound 0.316 µM, first compound 3.16 µM
[12] = second compound 0.316 µM, first compound 10 µM
[13] = second compound 1 µM, first compound 0.0316 µM
[14] = second compound 1 µM, first compound 0.1 µM
[15] = second compound 1 µM, first compound 0.316 µM
[16] = second compound 1 µM, first compound 1 µM
[17] = second compound 1 µM, first compound 3.16 µM
[18] = second compound 1 µM, first compound 10 µM
[19] = second compound 3.16 µM, first compound 0.0316 µM
[20] = second compound 3.16 µM, first compound 0.1 µM
[21] = second compound 3.16 µM, first compound 0.316 µM
[22] = second compound 3.16 µM, first compound 1 µM
[23] = second compound 3.16 µM, first compound 3.16 µM
[24] = second compound 3.16 µM, first compound 10 µM
[25] = second compound 10 µM, first compound 0.0316 µM
[26] = second compound 10 µM, first compound 0.1 µM
[27] = second compound 10 µM, first compound 0.316 µM
[28] = second compound 10 µM, first compound 1 µM
[29] = second compound 10 µM, first compound 3.16 µM
[30] = second compound 10 µM, first compound 10 µM
[31] = second compound 0.0316 µM, first compound 0.01 µM
[32] = second compound 0.0316 µM, first compound 0.0316 µM
[33] = second compound 0.0316 µM, first compound 0.1 µM
[34] = second compound 0.1 µM, first compound 0.01 µM
[35] = second compound 0.316 µM, first compound 0.01 µM
[36] = second compound 1 µM, first compound 0.01 µM
[37] = second compound 3.16 µM, first compound 0.01 µM
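Further: spheroids exposed to agents for 7 days.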
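Wherever viability, T/C is given: 100% = DMSO vehicle control viability.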

CC1OCC2(CCN(c3cnc(Sc4ccnc(N)c4Cl)c(N)n3)CC2)C1N (stereo not given) + C=CC(=O)N1CCN(c2nc(=O)n(-c3c(C)ccnc3C(C)C)c3nc(-c4c(O)cccc4F)c(F)cc23)C(C)C1
IC50 (second compound 0.1 µM): < 31.6 nM
IC50 (second compound 0.316 µM): < 31.6 nM
IC50 (second compound 1 µM): < 31.6 nM
IC50 (second compound 3.16 µM): < 31.6 nM
IC50 (second compound 10 µM): < 31.6 nM
viability, T/C [1]: 41.2%
viability, T/C [2]: 31.8%
viability, T/C [3]: 25%
viability, T/C [4]: 15.9%
viability, T/C [5]: 11.1%
viability, T/C [6]: 12%
viability, T/C [7]: 39.1%
viability, T/C [8]: 29.8%
viability, T/C [9]: 22.5%
viability, T/C [10]: 19%
viability, T/C [11]: 10.7%
viability, T/C [12]: 11.6%
viability, T/C [13]: 46.9%
viability, T/C [14]: 30.2%
viability, T/C [15]: 24.1%
viability, T/C [16]: 17.6%
viability, T/C [17]: 15%
viability, T/C [18]: 12.1%
viability, T/C [19]: 45.2%
viability, T/C [20]: 38.7%
viability, T/C [21]: 26.9%
viability, T/C [22]: 17.2%
viability, T/C [23]: 15.8%
viability, T/C [24]: 13%
viability, T/C [25]: 33%
viability, T/C [26]: 29.1%
viability, T/C [27]: 19.4%
viability, T/C [28]: 16.4%
viability, T/C [29]: 11.5%
viability, T/C [30]: 12.1%

Cn1nccc1Nc1nccc(-c2cc3c(s2)C(C)(C)N(CCN2CCOCC2)C3=O)n1 + C=CC(=O)N1CCN(c2nc(=O)n(-c3c(C)ccnc3C(C)C)c3nc(-c4c(O)cccc4F)c(F)cc23)C(C)C1
IC50 (second compound 0.1 µM): 67.8 nM
IC50 (second compound 0.316 µM): < 31.6 nM
IC50 (second compound 1 µM): < 31.6 nM
IC50 (second compound 3.16 µM): > 10000 nM
IC50 (second compound 10 µM): < 31.6 nM
viability, T/C [1]: 52%
viability, T/C [2]: 49.4%
viability, T/C [3]: 46.8%
viability, T/C [4]: 38.2%
viability, T/C [5]: 32.6%
viability, T/C [6]: 36%
viability, T/C [7]: 48.3%
viability, T/C [8]: 48%
viability, T/C [9]: 41.8%
viability, T/C [10]: 46.1%
viability, T/C [11]: 40%
viability, T/C [12]: 42.4%
viability, T/C [13]: 53.8%
viability, T/C [14]: 50%
viability, T/C [15]: 45.1%
viability, T/C [16]: 43.2%
viability, T/C [17]: 43.9%
viability, T/C [18]: 60.7%
viability, T/C [19]: 51.5%
viability, T/C [20]: 53%
viability, T/C [21]: 48%
viability, T/C [22]: 47.6%
viability, T/C [23]: 51.3%
viability, T/C [24]: 71.1%
viability, T/C [25]: 45.7%
viability, T/C [26]: 45.2%
viability, T/C [27]: 42.6%
viability, T/C [28]: 42.5%
viability, T/C [29]: 43.3%
viability, T/C [30]: 53.6%

CC(=O)OC12COC1CC(O)C1(C)C(=O)C(O)C3=C(C)C(OC(=O)C(O)C(NC(=O)OC(C)(C)C)c4ccccc4)CC(O)(C(OC(=O)c4ccccc4)C21)C3(C)C (stereo not given) + C=CC(=O)N1CCN(c2nc(OCC3CCCN3C)nc3c2CCN(c2cccc4cccc(C)c24)C3)CC1CC#N
IC50 (second compound 0.0316 µM): < 10 nM
IC50 (second compound 0.1 µM): < 10 nM
IC50 (second compound 0.316 µM): < 10 nM
IC50 (second compound 1 µM): < 10 nM
IC50 (second compound 3.16 µM): < 10 nM
viability, T/C [31]: 25.4%
viability, T/C [32]: 23.9%
viability, T/C [33]: 22.6%
viability, T/C (second compound 0.0316 µM, first compound 0.316 µM): 23.2%
viability, T/C (second compound 0.0316 µM, first compound 1 µM): 22.9%
viability, T/C (second compound 0.0316 µM, first compound 3.16 µM): 23.6%
viability, T/C [34]: 21.5%
viability, T/C [1]: 22.9%
viability, T/C [2]: 18.7%
viability, T/C [3]: 20.7%
viability, T/C [4]: 20.7%
viability, T/C [5]: 21.2%
viability, T/C [35]: 20.1%
viability, T/C [7]: 21.1%
viability, T/C [8]: 19.7%
viability, T/C [9]: 17.9%
viability, T/C [10]: 30.9%
viability, T/C [11]: 21.3%
viability, T/C [36]: 19.4%
viability, T/C [13]: 17.4%
viability, T/C [14]: 18.2%
viability, T/C [15]: 16%
viability, T/C [16]: 17.1%
viability, T/C [17]: 17.2%
viability, T/C [37]: 31.7%
viability, T/C [19]: 31.1%
viability, T/C [20]: 26.5%
viability, T/C [21]: 24.8%
viability, T/C [22]: 27.7%
viability, T/C [23]: 31.2%

CN(C)C/C=C/C(=O)Nc1cc2c(Nc3ccc(F)c(Cl)c3)ncnc2cc1O[C@H]1CCOC1 + C=CC(=O)N1CCN(c2nc(OCC3CCCN3C)nc3c2CCN(c2cccc4cccc(C)c24)C3)CC1CC#N
IC50 (second compound 0.0316 µM): 13 nM
IC50 (second compound 0.1 µM): 1.77 nM
IC50 (second compound 0.316 µM): 2.3 nM
IC50 (second compound 1 µM): 2.3 nM
IC50 (second compound 3.16 µM): < 0.316 nM
viability, T/C (second compound 0.0316 µM, first compound 0.000316 µM): 75.1%
viability, T/C (second compound 0.0316 µM, first compound 0.001 µM): 66.2%
viability, T/C (second compound 0.0316 µM, first compound 0.00316 µM): 55.9%
viability, T/C [31]: 49.6%
viability, T/C [32]: 49.9%
viability, T/C [33]: 47.9%
viability, T/C (second compound 0.1 µM, first compound 0.000316 µM): 66%
viability, T/C (second compound 0.1 µM, first compound 0.001 µM): 52.5%
viability, T/C (second compound 0.1 µM, first compound 0.00316 µM): 48.4%
viability, T/C [34]: 42.4%
viability, T/C [1]: 40.9%
viability, T/C [2]: 42.3%
viability, T/C (second compound 0.316 µM, first compound 0.000316 µM): 56.2%
viability, T/C (second compound 0.316 µM, first compound 0.001 µM): 51.1%
viability, T/C (second compound 0.316 µM, first compound 0.00316 µM): 53.2%
viability, T/C [35]: 43.1%
viability, T/C [7]: 39.2%
viability, T/C [8]: 39.1%
viability, T/C (second compound 1 µM, first compound 0.000316 µM): 62.5%
viability, T/C (second compound 1 µM, first compound 0.001 µM): 52.4%
viability, T/C (second compound 1 µM, first compound 0.00316 µM): 52.6%
viability, T/C [36]: 41.9%
viability, T/C [13]: 40.7%
viability, T/C [14]: 42.5%
viability, T/C (second compound 3.16 µM, first compound 0.000316 µM): 36.8%
viability, T/C (second compound 3.16 µM, first compound 0.001 µM): 34.9%
viability, T/C (second compound 3.16 µM, first compound 0.00316 µM): 19.4%
viability, T/C [37]: 17.3%
viability, T/C [19]: 17%
viability, T/C [20]: 14.7%
